According to article PMC9252919, “Controlled masking and targeted release of redox-cycling ortho-quinones via a C–C bond-cleaving 1,6-elimination” (Nature Chemistry, 2022):

Assays:
[1] = Quantitative LC-MS/MS of β-lapachone in xenograft mouse tumour; format: in vivo, NOD-SCID mice; settings: fixed tumour homogenate of mice treated with ADC Gem-HC-239iC-BL
Protocol: Concentrations of β-lapachone in formalin-fixed tumour and the respective formol supernatant were quantified using reversed-phase ultra-high-performance liquid chromatography tandem mass spectrometry as previously described. Care was taken during sample handling to minimize exposure to light, and amber glass/plastic and foil wrapping were used where possible. Tumour tissue was homogenized to a concentration of 200 mg ml^−1 with PBS. An aliquot of homogenate or formol supernatant sample was transferred to a fresh tube with cryptotanshinone (internal standard) in ethyl acetate for liquid–liquid extraction. Samples were mixed, centrifuged and the ethyl acetate layer transferred to a 96-well plate, evaporated and reconstituted in 0.1% formic acid in acetonitrile:water 70:30. PBS was used as the surrogate matrix for calibration standards and quality-control samples. The calibration ranges were 0.25–250 ng g^−1 (homogenate) and 0.05–50 ng ml^−1 (formol). The analytical batches included quality-control samples at low, medium and high concentrations. The analysis was performed on a Shimadzu Nexera X2 UHPLC coupled to a Sciex TripleTOF 6600 mass spectrometer. The extracted samples were injected onto a Phenomenex Kinetex EVO C18, 1.7 µm, 50 × 2.1 mm analytical column, at 35 °C. […]

HL-60 cells [2] = experiment: Lysosomal deacidification and inhibition assay; format: cell-based, human; settings: HL-60, NH4Cl 30 mM
Protocol: Assays to assess the effect of lysosomal activity on prodrugs were performed as follows: HL-60 cells were plated into 96-well plates at a concentration of 2.5 × 10^5 cells ml^−1 in 180 µl media. Cells were treated with 10 µl of a stock of NH4Cl in PBS (to obtain an in-plate concentration of 3 or 30 mM), 10 µl of a dilution of a DMSO stock of E64d in PBS (to obtain an in-plate concentration of 30 μM), PBS only or a dilution of DMSO in PBS. Cells were incubated for 30 min. Following this, 10 µl of a stock of test compound made by dilution of a DMSO stock into media was added. DMSO was present in-plate at a maximum of 0.2%. Cells were incubated overnight for 16 h. Following incubation, media was replaced with media containing CellTiter-Blue (Promega) in 1:4 dilution and the plates were incubated for 6 h. The fluorescence of the plates was recorded (excitation, 555 nm; emission, 585 nm; MiniMax i3x Reader, Molecular Devices). Cell viability was calculated by division of the fluorescence intensity of treated wells by that of the average fluorescence intensity of the relevant negative control wells.

AML cell line MOLM-13 = experiment: Viability assay with small-molecule prodrugs, MOLM-13; format: cell-based; settings: 5 µM, 24 h
Protocol: (§1) For assays assessing cytotoxicity of β-lapachone versus small-molecule prodrugs, antibodies and ADCs, suspension cells were plated into 24-well plates at a density of 2.5 × 10^5 cells ml^−1 in 240 µl. Stocks of ADC or antibody in PBS were normalized to 12.5 µM. Serial dilutions of compound were made up in PBS. Then, 60 µl of each stock of either PBS or compound in PBS was added to the cells to achieve the desired final concentration. After the specified incubation time, toxicity was assessed by counting of live cells using the trypan blue exclusion method with a Countess II Automated Cell Counter (ThermoFisher Scientific) according to the manufacturer’s instructions. Cell viability was determined by dividing the average live cell number of treated wells by the average live cell number for control wells treated with PBS only. IC50 values were calculated using GraphPad Prism software. Note: for the assay performed over 96 h, 5% human serum was added to media instead of 10% fetal bovine serum, to limit non-specific antibody internalisation. This had little effect on ADC toxicity.

CD33+ HL-60 cells = experiment: Viability assay with small-molecule prodrugs and ADCs, HL-60; format: cell-based, human; settings: Homo sapiens, read-out: IC50 against CD33+ HL-60 cells
Protocol: as §1

[3] = tested on: range of cancer cell lines, including leukaemia, breast, colon and cervical cancer; experiment: Viability assay (CellTiter-Blue) with small-molecule lapachone models; format: cell-based; settings: 48 h
Protocol: Assays assessing cytotoxicity of β-lapachone and derivatives were performed by CellTiter-Blue assay (Promega) according to the manufacturer’s instructions. Briefly, adherent cancer-cell lines were plated at 20,000 cells per well in 96-well plates or suspension cell lines were plated at a concentration of 2 × 10^5 cells ml^−1 in 24-well plates. Compound stocks in media were made by dilution of DMSO stocks containing the compound of interest to obtain a final in-plate DMSO concentration of only 0.1%. Incubation was performed for 48 h. Following incubation, media was replaced with media containing CellTiter-Blue (Promega) in 1:10 dilution and the plates were incubated for 1.5–4 h. The fluorescence of the plates was recorded (excitation, 555 nm; emission, 585 nm; MiniMax i3x Reader, Molecular Devices). Cell viability was calculated by division of the fluorescence intensity of treated wells by that of the calculated average fluorescence intensity of replicate negative control wells containing cells with 0.1% DMSO only. IC50 values were calculated using GraphPad Prism 8 software.

HL-60 cells [4] = experiment: Cellular ROS detection with 2',7'-dichlorodihydrofluorescein diacetate; format: cell-based, human; settings: 50 µM, 15 min
Protocol: To determine ROS generation by compounds in leukaemia cells, HL-60 cells were washed with PBS, then incubated in serum-free media (10 ml of 1.6 × 10^6 ml^−1 cell concentration) with 2,7-dichlorofluorescin diacetate at 20 µM for 30 min at 37 °C. Following this, the cells were washed with PBS and resuspended in Fluorbrite–DMEM media (ThermoFisher) (10 ml). Then, 450 µl of the cell mixture was seeded into wells of a clear flat-bottomed 12-well plate, to which 50 µl of a 10× stock of the compounds in media had been already added, to achieve a final compound concentration of 50 µM. The 10× media stocks were made by 100-fold dilution of DMSO compound stocks, to ensure a final in-plate DMSO concentration of 0.1%. DMSO 0.1% only was used as a negative control. […] After plating the cells were immediately incubated at 37 °C in the dark for 15 min before the fluorescence of the wells (excitation, 485 nm; emission, 535 nm) was recorded (MiniMax i3x Imager, Molecular Devices).

Row | SMILES | concentration of 1 in tumour tissue [1] | toxicity with NH4Cl at 30 mM (HL-60 cells [2]) | toxicity to MOLM-13 at 5 µM (AML cell line MOLM-13) | IC50 (CD33+ HL-60 cells) | decrease in toxicity relative to 1 [3] | ROS generation in HL-60 (HL-60 cells [4])
1 | CC1(C)CCC2=C(O1)c1ccccc1C(=O)C2=O [Compound 1, β-lapachone, reference compound] | 0.327 ng/g | increase in toxicity | complete cell death | ~1000 nM |  | 
2 | CC1(C)CCC2=C(O1)c1ccccc1C(O)(Cc1ccccc1)C2=O (stereo not drawn) [Compound 24, benzyl β-lapa-ketol] |  |  |  |  | > 20 fold | did not generate detectable ROS
